In DBAASP one finds MIC data, which are given here for 10 molecules.

Test systems include Bacillus subtilis 168; Klebsiella pneumoniae; Acinetobacter baumannii; Escherichia coli UB1005.
Test in all cases: ≥ marks a high value that may be exact or a test limit, other limits are often not marked, values filed in µg/mL are converted to µM
Assay [1] concerns Escherichia coli DH5alpha.
In assay [2] the test system is Staphylococcus aureus ATCC 25923.
The test system of assay [3] is Klebsiella pneumoniae ATCC 13883.
The subject of assay [4] is Klebsiella pneumoniae ATCC 700603.
In assay [5] the test system is Escherichia coli ATCC 25726.
The subject of assay [6] is Pseudomonas aeruginosa ATCC 27853.
The test system of assay [7] is Candida albicans ATCC 90028.
Assay [8] concerns Salmonella enterica subsp. enterica serovar Typhimurium ATCC 14028.
Assay [9] concerns Staphylococcus epidermidis ATCC 12228.
In assay [10] the test system is Staphylococcus aureus ATCC 43300.
The test system of assay [11] is Salmonella enterica subsp. enterica serovar Typhimurium C77-31.
For assay [12], the system named is Klebsiella pneumoniae ATCC 10031.
Assay [13] relates to Enterococcus faecalis ATCC 29212.
The test system of assay [14] is Escherichia coli ATCC 25922.
Assay [15] has as its system Staphylococcus aureus ATCC 29213.

≈ marks a conversion by molar mass, not a printed value. Where “and” joins values, the source holds several entries; their conditions need not be identical. Identical values can stand only once.

On to `CC(C)[C@H](NC(=O)[C@H](CCCCN)NC(=O)[C@H](CCCCN)NC(=O)[C@@H](NC(=O)[C@@H](NC(=O)[C@H](CCCCN)NC(=O)[C@H](CCCCN)NC(=O)[C@@H](NC(=O)[C@@H](NC(=O)[C@H](CCCCN)NC(=O)[C@H](CCCCN)NC(=O)[C@@H](NC(=O)[C@@H](NC(=O)CN)C(C)C)C(C)C)C(C)C)C(C)C)C(C)C)C(C)C)C(N)=O` [GVVKKVVKKVVKKV], for which the MIC against Bacillus subtilis 168 was not below 65 µM; in [1], not below 125 µM.

With `CC(C)C[C@H](NC(=O)[C@H](CCCN=C(N)N)NC(=O)[C@H](C)NC(=O)[C@H](C)NC(=O)[C@H](Cc1c[nH]c2ccccc12)NC(=O)CNC(=O)[C@H](CCCN=C(N)N)NC(=O)[C@@H](N)CCCN=C(N)N)C(=O)N[C@@H](Cc1ccccc1)C(=O)N[C@@H](C)C(=O)N[C@@H](C)C(=O)N[C@@H](Cc1ccccc1)C(=O)NCC(=O)N[C@@H](CCCN=C(N)N)C(=O)N[C@@H](CCCN=C(N)N)C(N)=O` [RRGWAARLFAAFGRR], the MIC in the assay on Klebsiella pneumoniae is 1.2 µM (≈ 2.15 µg/mL); in assay [2], more than 30 µM; in assay [3] it was 30 µM (≈ 53.7 µg/mL); against Acinetobacter baumannii it was 4.8 µM (≈ 8.59 µg/mL).

As to `CC[C@H](C)[C@H](N)C(=O)N[C@@H](CCCCN)C(=O)N[C@H](C(=O)N1CCC[C@H]1C(=O)N[C@@H](C)C(=O)N[C@@H](Cc1ccccc1)C(=O)N[C@H](C(=O)N[C@@H](CCCCN)C(=O)N[C@@H](CC(=O)O)C(=O)N[C@H](C(=O)N[C@@H](CC(C)C)C(=O)N[C@@H](CCCCN)C(=O)N[C@@H](CCCCN)C(=O)N[C@H](C(=O)N[C@@H](C)C(=O)N[C@@H](CCCCN)C(=O)NCC(=O)N[C@H](C(=O)N[C@H](C(=O)N[C@@H](CO)C(=O)N[C@@H](C)C(=O)N[C@H](C(=O)N[C@@H](C)C(=O)NCC(=O)N[C@@H](C)C(=O)N[C@@H](CC(C)C)C(=O)N[C@H](C(=O)N[C@@H](CCC(N)=O)C(=O)O)[C@@H](C)O)C(C)C)[C@@H](C)CC)C(C)C)C(C)C)[C@@H](C)O)C(C)C)[C@@H](C)CC` [IKIPAFVKDTLKKVAKGVISAVAGALTQ], the MIC was 20 µM (≈ 57.4 µg/mL) in assay [4]; 20 µM (≈ 57.4 µg/mL) in assay [5]; 20 µM (≈ 57.4 µg/mL) in assay [6]; 20 µM (≈ 57.4 µg/mL) in assay [2]; not below 80 µM in [7].

`CC[C@H](C)[C@H](N)C(=O)N[C@@H](CCCN=C(N)N)C(=O)N[C@H](C(=O)N[C@@H](CCCN=C(N)N)C(=O)N[C@H](C(=O)N[C@@H](CCCN=C(N)N)C(=O)N1CCC[C@H]1C(=O)N[C@H](C(=O)N[C@@H](CCCN=C(N)N)C(=O)N[C@H](C(=O)N[C@@H](CCCN=C(N)N)C(=O)N[C@H](C(=O)N[C@@H](CCCN=C(N)N)C(=O)N1CCC[C@H]1C(=O)O)[C@@H](C)CC)[C@@H](C)CC)[C@@H](C)CC)[C@@H](C)CC)[C@@H](C)CC` [IRIRIRPIRIRIRP]: the MIC in [8] was 16 µM (≈ 29.3 µg/mL); in [9], more than 128 µM; in assay [10], 64 µM (≈ 117 µg/mL); in [6], 8 µM (≈ 14.6 µg/mL); in [2] it was 64 µM (≈ 117 µg/mL); against Escherichia coli UB1005, 8 µM (≈ 14.6 µg/mL). In [11], the MIC came out at 16 µM (≈ 29.3 µg/mL).

For the molecule `CC[C@H](C)[C@@H]1NC(=O)[C@H](CCCCN)NC(=O)[C@@H](NC(=O)[C@@H](NC(=O)[C@@H](NC(=O)[C@@H](NC(=O)[C@@H]2CCCN2C(=O)[C@H](CC(C)C)NC(=O)[C@H](Cc2ccccc2)NC(=O)[C@H](CCCCN)NC(=O)[C@H](C)NC(=O)[C@H](C)NC(=O)[C@H](CC(C)C)NC(=O)[C@H](CCCCN)NC(=O)[C@H](CCCCN)NC(=O)[C@H](CC(C)C)NC(=O)[C@H](CC(C)C)NC(=O)[C@H](CCCCN)NC(=O)[C@H](CC(C)C)NC(=O)[C@@H](N)Cc2ccccc2)[C@@H](C)O)[C@@H](C)CC)[C@@H](C)CC)CSSC[C@@H](C(=O)O)NC(=O)[C@H](CCCCN)NC(=O)[C@H](Cc2ccc(O)cc2)NC(=O)[C@H](CO)NC1=O` [FLKLLKKLAAKFLPTIICKISYKC], the values for the MIC in assay [8], in assay [12] and in assay [1] were 35.9 µM (≈ 99.9 µg/mL), not below 35.9 µM and 18 µM (≈ 50 µg/mL), respectively.

Regarding `CC[C@H](C)[C@H](NC(=O)CNC(=O)[C@H](CO)NC(=O)[C@H](CC(C)C)NC(=O)[C@@H](NC(=O)[C@H](CCCN=C(N)N)NC(=O)CNC(=O)[C@@H](NC(=O)[C@H](CC(C)C)NC(=O)[C@@H]1CCCN1C(=O)[C@H](CC(C)C)NC(=O)[C@@H](N)Cc1ccccc1)[C@@H](C)CC)C(C)C)C(=O)N[C@@H](CC(C)C)C(=O)NCC(=O)N[C@@H](Cc1c[nH]c2ccccc12)C(=O)N[C@@H](CCCCN)C(=O)N[C@@H](CCCN=C(N)N)C(=O)N[C@@H](CCCCN)C(=O)N[C@@H](CCCN=C(N)N)C(=O)N[C@@H](Cc1ccccc1)C(=O)NCC(N)=O` [FLPLIGRVLSGILGWKRKRFG], the MIC is 5 µM and 10 µM in [8]; 10 µM (≈ 24.1 µg/mL) in assay [13]; 4 µM and 8 µM in assay [3].

As for `CC[C@H](C)[C@@H]1NC(=O)[C@H](CCCCN)NC(=O)[C@@H](NC(=O)[C@@H](NC(=O)[C@@H](NC(=O)[C@@H](NC(=O)[C@@H]2CCCN2C(=O)[C@H](CC(C)C)NC(=O)[C@H](Cc2ccccc2)NC(=O)[C@H](CC(N)=O)NC(=O)[C@H](C)NC(=O)[C@H](C)NC(=O)[C@H](CC(C)C)NC(=O)CNC(=O)[C@H](C)NC(=O)[C@@H](N)Cc2ccccc2)[C@@H](C)O)[C@@H](C)CC)[C@@H](C)CC)CSSC[C@@H](C(=O)O)NC(=O)[C@H](CCCCN)NC(=O)[C@H](Cc2ccc(O)cc2)NC(=O)[C@H](CO)NC1=O` [FAGLAANFLPTIICKISYKC], the MIC is more than 46 µM in [8], not below 46 µM in assay [12] and not below 46 µM in assay [1].

Regarding `CC(C)C[C@H](NC(=O)[C@H](Cc1c[nH]c2ccccc12)NC(=O)[C@H](CCCCN)NC(=O)[C@H](CCCN=C(N)N)NC(=O)[C@@H](NC(=O)[C@H](Cc1c[nH]c2ccccc12)NC(=O)[C@H](CCCCN)NC(=O)[C@H](CCCN=C(N)N)NC(=O)[C@H](CC(C)C)NC(=O)[C@H](Cc1c[nH]c2ccccc12)NC(=O)[C@@H](N)CCCN=C(N)N)[C@@H](C)O)C(=O)N[C@@H](CCCCN)C(N)=O` [RWLRKWTRKWLK], the MIC is 4 µM (≈ 7.02 µg/mL) in assay [14]; 8 µM (≈ 14 µg/mL) in assay [15]; 8 µM (≈ 14 µg/mL) in assay [9]; 16 µM (≈ 28.1 µg/mL) in assay [2]; 4 µM (≈ 7.02 µg/mL) with Escherichia coli UB1005; 16 µM (≈ 28.1 µg/mL) in assay [11].

In the case of `CC[C@H](C)[C@H](NC(=O)[C@H](Cc1c[nH]c2ccccc12)NC(=O)[C@H](CCCCN)NC(=O)[C@H](CC(C)C)NC(=O)[C@@H](NC(=O)[C@H](CCCCN)NC(=O)CNC(=O)[C@@H](NC(=O)[C@H](CCCCN)NC(=O)[C@H](CCCCN)NC(=O)[C@H](CC(C)C)NC(=O)[C@@H](NC(=O)[C@H](CCCCN)NC(=O)[C@H](CCCN=C(N)N)NC(=O)[C@@H](NC(=O)[C@@H](NC(=O)[C@H](CCCCN)NC(=O)[C@H](CCCN=C(N)N)NC(=O)[C@H](CC(C)C)NC(=O)[C@H](CCCN=C(N)N)NC(=O)[C@H](CCCN=C(N)N)NC(=O)[C@H](Cc1ccccc1)NC(=O)[C@@H](NC(=O)CN)C(C)C)C(C)C)[C@@H](C)O)C(C)C)[C@@H](C)CC)C(C)C)C(N)=O` [GVFRRLRKVTRKVLKKIGKVLKWI], the MIC is 4 µM (≈ 11.7 µg/mL) in [14]; 4 µM (≈ 11.7 µg/mL) in assay [15]; 2 µM (≈ 5.84 µg/mL) in [9]; 4 µM (≈ 11.7 µg/mL) in assay [2]; 4 µM (≈ 11.7 µg/mL) in the assay on Escherichia coli UB1005; 4 µM (≈ 11.7 µg/mL) in assay [11].

Consider `CC[C@H](C)[C@H](N)C(=O)N[C@@H](CCCCN)C(=O)N[C@H](C(=O)N1CCC[C@H]1C(=O)N1CCC[C@H]1C(=O)N[C@H](C(=O)N[C@H](C(=O)N[C@@H](CCCCN)C(=O)N[C@@H](CC(=O)O)C(=O)N[C@H](C(=O)N[C@@H](CC(C)C)C(=O)N[C@@H](CCCCN)C(=O)N[C@@H](CCCCN)C(=O)N[C@H](C(=O)N[C@@H](C)C(=O)N[C@@H](CCCCN)C(=O)NCC(=O)N[C@H](C(=O)N[C@@H](CC(C)C)C(=O)N[C@@H](CO)C(=O)N[C@H](C(=O)N[C@H](C(=O)N[C@@H](C)C(=O)NCC(=O)N[C@@H](C)C(=O)N[C@@H](CC(C)C)C(=O)N[C@@H](CO)C(=O)N[C@H](C(=O)O)[C@@H](C)O)[C@@H](C)CC)[C@@H](C)O)C(C)C)C(C)C)[C@@H](C)O)C(C)C)[C@@H](C)CC)[C@@H](C)CC` [IKIPPIVKDTLKKVAKGVLSTIAGALST], for which the MIC in [5] was not below 40 µM; in assay [2], 80 µM (≈ 229 µg/mL); in assay [7], not below 160 µM.
